Measurements taken from ChEMBL document CHEMBL1145294, “Genotoxic activity of halogenated phenylglycine derivatives” (Bioorg Med Chem Lett, 2006).
The source made the active and inactive calls. The rule behind the calls is not given here.

Assays:
Saccharomyces cerevisiae [1] = assay: Cytotoxicity against Saccharomyces cerevisiae rad14; assay type: organism-based; details: in vivo
Saccharomyces cerevisiae [2] = assay: Cytotoxicity against Saccharomyces cerevisiae rad52; assay type: organism-based; details: in vivo
Saccharomyces cerevisiae [3] = assay: Cytotoxicity against Saccharomyces cerevisiae rad53-11; assay type: organism-based; details: in vivo
Saccharomyces cerevisiae [4] = assay: Cytotoxicity against Saccharomyces cerevisiae mec1-1; assay type: organism-based; details: in vivo
NCI-H460 = assay: Cytotoxicity against NCI-H460 cells; assay type: cell-based; details: human
Saccharomyces cerevisiae [5] = assay: Cytotoxicity against Saccharomyces cerevisiae rad52-ku80; assay type: organism-based; details: in vivo
SF-268 = assay: Cytotoxicity against SF268 cells; assay type: functional, cell-based; details: Homo sapiens
MCF7 = assay: Cytotoxicity against MCF7 cells; assay type: cell-based; details: human

| SMILES | Activity (Saccharomyces cerevisiae [1]) | Activity (Saccharomyces cerevisiae [2]) | Activity (Saccharomyces cerevisiae [3]) | Activity (Saccharomyces cerevisiae [4]) | Activity (NCI-H460) | Activity (Saccharomyces cerevisiae [5]) | Activity (SF-268) | Activity (MCF7) |
| --- | --- | --- | --- | --- | --- | --- | --- | --- |
| COC(=O)C(NC(=O)c1ccccc1)c1ccc(OC)c(I)c1 (stereo unspecified) | Active | Active | Active | Active | Active | Active | Active | Active |
| COC(=O)C(NC(=O)c1ccccc1)c1ccc(OC)c(Br)c1 (stereo unspecified) | Active | Active | Active | Active |  | Active |  |  |
| COC(=O)C(c1ccc(OC)c(I)c1)N1C(=O)c2ccccc2C1=O (stereo unspecified) |  |  |  |  | Not Active |  | inactive | Not Active |
| COC(=O)C(O)c1ccc(OC)c(I)c1 (stereo unspecified) |  |  |  |  | Not Active |  | inactive | Not Active |
| CC(C)(C)[Si](Oc1ccc(C(NC(=O)c2ccccc2)C(=O)O)cc1I)(c1ccccc1)c1ccccc1 (stereo unspecified) |  |  |  |  | Active |  | Active | Active |
| O=C(NC(C(=O)O)c1ccc(O)c(I)c1)c1ccccc1 (stereo unspecified) |  |  |  |  | Not Active |  | inactive | Not Active |
| COc1ccc(C(OC(C)=O)C(=O)O)cc1I (stereo unspecified) |  |  |  |  | Not Active |  | inactive | Not Active |
| COc1ccc(C(O)C(=O)O)cc1I (stereo unspecified) |  |  |  |  | Not Active |  | inactive | Not Active |
| COC(=O)Cc1ccc(OC)c(I)c1 |  |  |  |  | Not Active |  | inactive | Not Active |
| COC(=O)Nc1ccc(C(NC(=O)c2ccccc2)C(=O)O)cc1I (stereo unspecified) |  |  |  |  | Not Active |  | inactive | Not Active |
| COC(=O)C(OC(C)=O)c1ccc(OC)c(I)c1 (stereo unspecified) |  |  |  |  | Not Active |  | inactive | Not Active |
| COC(=O)C(Sc1ccccc1)c1ccc(OC)c(I)c1 (stereo unspecified) |  |  |  |  | Not Active |  | inactive | Not Active |
| COC(=O)Cc1cc(I)c(OC)c(I)c1 |  |  |  |  | Not Active |  | inactive | Not Active |
